Results: PubChem BioAssay AID248 (DTP/NCI, 2004)
Where “and” joins values, the source holds several entries; their conditions need not be identical. Equal entries are not always repeated. Toxic doses and inconclusive results are not listed. Rule as the data show it: active = T/C of 150% or more; inactive = T/C below 125%.

Tested on: L1210 leukemia ip in BDF1 mice, survival T/C
Experiment: NCI In Vivo Anticancer Drug Screen. Data for tumor model L1210 Leukemia (intraperitoneal) in B6D2F1 (BDF1) mice
Conditions: endpoint: mean survival time, higher = longer survival
Outline: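 In this screen, tumor-bearing mice given compound are compared to those given vehicle, and their survival values are reported as a treated-to-control quotient.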

[1] = dose: 100.0 mg/kg/injection, schedule: Q01DX001 (ip), vehicle: Klucel (hydroxypropylcellulose) (HPC)
[2] = dose: 100.0 mg/kg/injection, schedule: Q01DX009 (ip), vehicle: Klucel (hydroxypropylcellulose) (HPC)
[3] = dose: 100.0 mg/kg/injection, schedule: Q04DX002 (ip), vehicle: Klucel (hydroxypropylcellulose) (HPC)
[4] = dose: 100.0 mg/kg/injection, schedule: Q04DX003 (ip), vehicle: Klucel (hydroxypropylcellulose) (HPC)
[5] = dose: 200.0 mg/kg/injection, schedule: Q01DX001 (ip), vehicle: Klucel (hydroxypropylcellulose) (HPC)
[6] = dose: 200.0 mg/kg/injection, schedule: Q01DX009 (ip), vehicle: Klucel (hydroxypropylcellulose) (HPC)
[7] = dose: 200.0 mg/kg/injection, schedule: Q04DX002 (ip), vehicle: Klucel (hydroxypropylcellulose) (HPC)
[8] = dose: 200.0 mg/kg/injection, schedule: Q04DX003 (ip), vehicle: Klucel (hydroxypropylcellulose) (HPC)
[9] = dose: 400.0 mg/kg/injection, schedule: Q01DX001 (ip), vehicle: Klucel (hydroxypropylcellulose) (HPC)
[10] = dose: 400.0 mg/kg/injection, schedule: Q01DX009 (ip), vehicle: Klucel (hydroxypropylcellulose) (HPC)
[11] = dose: 400.0 mg/kg/injection, schedule: Q04DX002 (ip), vehicle: Klucel (hydroxypropylcellulose) (HPC)
[12] = dose: 400.0 mg/kg/injection, schedule: Q04DX003 (ip), vehicle: Klucel (hydroxypropylcellulose) (HPC)
[13] = dose: 100.0 mg/kg/injection, schedule: Q04DX003 (ip), vehicle: saline with Tween-80
[14] = dose: 200.0 mg/kg/injection, schedule: Q04DX003 (ip), vehicle: saline with Tween-80
[15] = dose: 100.0 mg/kg/injection, schedule: Q04DX003 (ip), vehicle: saline
[16] = dose: 200.0 mg/kg/injection, schedule: Q04DX003 (ip), vehicle: saline

Measured: T/C

COc1c2c(c(OC)c3c1c(=O)c1ccccc1n3C)OCO2
inactive: dose: 100.0 mg/kg/injection, schedule: Q01DX001 (ip), vehicle: carboxymethylcellulose (CMC) 102 % of control | dose: 200.0 mg/kg/injection, schedule: Q01DX001 (ip), vehicle: carboxymethylcellulose (CMC) 98 % of control | dose: 300.0 mg/kg/injection, schedule: Q01DX001 (ip), vehicle: carboxymethylcellulose (CMC) 102 % of control | dose: 400.0 mg/kg/injection, schedule: Q01DX001 (ip), vehicle: carboxymethylcellulose (CMC) 96 % of control | dose: 500.0 mg/kg/injection, schedule: Q01DX001 (ip), vehicle: carboxymethylcellulose (CMC) 93 % of control

CCOC(=O)c1cc2nc(C(C)C)n(Cc3ccccc3)c2cc(C(=O)OCC)c1=O
inactive: [1] 96 % of control | [2] 104 % of control and 89 % of control | [3] 98 % of control and 105 % of control | [4] 97 % of control | [5] 91 % of control | [6] 97 % of control and 89 % of control | [7] 96 % of control | [8] 100 % of control | [9] 100 % of control | [10] 98 % of control | [11] 88 % of control and 89 % of control | [12] 100 % of control

Cc1cc(N=NC(=N)N)c(C(C)C)cc1NN=C(N)N
inactive: dose: 60.0 mg/kg/injection, schedule: Q01DX Z (oral), vehicle: carboxymethylcellulose (CMC) 106 % of control | dose: 120.0 mg/kg/injection, schedule: Q01DX Z (oral), vehicle: carboxymethylcellulose (CMC) 100 % of control | dose: 480.0 mg/kg/injection, schedule: Q01DX Z (oral), vehicle: carboxymethylcellulose (CMC) 102 % of control

O=C(Nc1cccc(Cl)c1Cl)Oc1cccc2ccccc12
inactive: [3] 101 % of control | [7] 108 % of control | [11] 114 % of control

OC1CCCCC1C1CCCCC1 (stereo not drawn)
inactive: dose: 50.0 mg/kg/injection, schedule: Q01DX009 (ip), vehicle: saline with Tween-80 94 % of control | dose: 100.0 mg/kg/injection, schedule: Q01DX009 (ip), vehicle: saline with Tween-80 94 % of control | dose: 100.0 mg/kg/injection, schedule: Q04DX002 (ip), vehicle: saline 121 % of control | dose: 300.0 mg/kg/injection, schedule: Q04DX002 (ip), vehicle: saline 107 % of control | dose: 400.0 mg/kg/injection, schedule: Q04DX002 (ip), vehicle: saline 100 % of control

COc1ccc(Br)c(CCC(C)C)c1O
inactive: [2] 110 % of control | [4] 108 % of control | [6] 95 % of control | [8] 103 % of control | [10] 89 % of control | [12] 101 % of control

CCCCCCCCN(C)N=Nc1ccc(C(N)=O)cc1
inactive: dose: 118.0 mg/kg/injection, schedule: Q01DX009 (ip), vehicle: Klucel (hydroxypropylcellulose) (HPC) 122 % of control | dose: 175.0 mg/kg/injection, schedule: Q01DX009 (ip), vehicle: Klucel (hydroxypropylcellulose) (HPC) 115 % of control

O=C(NCCCl)NC1CCSc2ccccc21 (stereo not drawn)
inactive: [13] 101 % of control | [14] 95 % of control

Cc1cccc(NC(=O)c2c(Br)c(Br)c(Br)c(Br)c2C(=O)O)c1C
inactive: [2] 100 % of control | [6] 103 % of control

C=CCc1cc(OC)cc(C(=O)c2cccc(OC)c2C#N)c1OC
inactive: dose: 100.0 mg/kg/injection, schedule: Q01DX001 (ip), vehicle: other 104 % of control and 106 % of control | dose: 100.0 mg/kg/injection, schedule: Q04DX002 (ip), vehicle: other 104 % of control | dose: 100.0 mg/kg/injection, schedule: Q04DX003 (ip), vehicle: other 100 % of control and 92 % of control | dose: 200.0 mg/kg/injection, schedule: Q01DX001 (ip), vehicle: other 95 % of control and 107 % of control | dose: 200.0 mg/kg/injection, schedule: Q04DX002 (ip), vehicle: other 100 % of control and 92 % of control | dose: 200.0 mg/kg/injection, schedule: Q04DX003 (ip), vehicle: other 100 % of control and 92 % of control | dose: 400.0 mg/kg/injection, schedule: Q01DX001 (ip), vehicle: other 118 % of control and 90 % of control | dose: 400.0 mg/kg/injection, schedule: Q04DX002 (ip), vehicle: other 88 % of control and 89 % of control | dose: 400.0 mg/kg/injection, schedule: Q04DX003 (ip), vehicle: other 102 % of control and 92 % of control

Cc1cccc(OC(=O)Nc2cccc(Cl)c2)c1C
inactive: [1] 94 % of control | [2] 94 % of control and 100 % of control | [3] 102 % of control and 105 % of control | [4] 101 % of control | [5] 92 % of control | [6] 98 % of control and 100 % of control | [7] 96 % of control and 98 % of control | [8] 97 % of control | [9] 92 % of control | [10] 94 % of control and 96 % of control | [11] 107 % of control and 109 % of control | [12] 93 % of control

Cc1nc(Cl)cc(Cl)n1
inactive: [4] 90 % of control | [8] 90 % of control | [12] 97 % of control

CNC(=O)CO
inactive: [15] 98 % of control | [16] 103 % of control | dose: 400.0 mg/kg/injection, schedule: Q04DX003 (ip), vehicle: saline 92 % of control

CC(C)C1C(=O)N2CCCC2C2(O)OC(C(=O)NCCc3c[nH]c4ccccc34)(C(C)C)C(=O)N12 (stereo not drawn)
inactive: dose: 6.25 mg/kg/injection, schedule: Q04DX003 (ip), vehicle: saline with Tween-80 98 % of control | dose: 12.5 mg/kg/injection, schedule: Q04DX003 (ip), vehicle: saline with Tween-80 111 % of control | dose: 25.0 mg/kg/injection, schedule: Q04DX003 (ip), vehicle: alcohol 98 % of control | dose: 25.0 mg/kg/injection, schedule: Q04DX003 (ip), vehicle: saline with Tween-80 101 % of control | dose: 50.0 mg/kg/injection, schedule: Q04DX003 (ip), vehicle: alcohol 105 % of control | dose: 50.0 mg/kg/injection, schedule: Q04DX003 (ip), vehicle: saline with Tween-80 98 % of control | dose: 100.0 mg/kg/injection, schedule: Q04DX003 (ip), vehicle: alcohol 98 % of control | dose: 200.0 mg/kg/injection, schedule: Q04DX003 (ip), vehicle: alcohol 98 % of control

O=C(Nc1cccc(Cl)c1)Oc1ccc(Cl)cc1Cc1ccccc1
inactive: dose: 100.0 mg/kg/injection, schedule: Q01DX009 (ip), vehicle: carboxymethylcellulose (CMC) 95 % of control and 91 % of control | [3] 121 % of control | dose: 100.0 mg/kg/injection, schedule: Q04DX002 (ip), vehicle: carboxymethylcellulose (CMC) 100 % of control | dose: 100.0 mg/kg/injection, schedule: Q04DX003 (ip), vehicle: carboxymethylcellulose (CMC) 94 % of control | dose: 200.0 mg/kg/injection, schedule: Q01DX009 (ip), vehicle: carboxymethylcellulose (CMC) 95 % of control and 97 % of control | [7] 102 % of control | dose: 200.0 mg/kg/injection, schedule: Q04DX002 (ip), vehicle: carboxymethylcellulose (CMC) 97 % of control and 107 % of control | dose: 200.0 mg/kg/injection, schedule: Q04DX003 (ip), vehicle: carboxymethylcellulose (CMC) 97 % of control | dose: 400.0 mg/kg/injection, schedule: Q01DX009 (ip), vehicle: carboxymethylcellulose (CMC) 93 % of control and 97 % of control | [11] 97 % of control | dose: 400.0 mg/kg/injection, schedule: Q04DX002 (ip), vehicle: carboxymethylcellulose (CMC) 98 % of control and 100 % of control | dose: 400.0 mg/kg/injection, schedule: Q04DX003 (ip), vehicle: carboxymethylcellulose (CMC) 94 % of control

O=C(O)CC1C=CCC1 (stereo not drawn)
inactive: dose: 25.0 mg/kg/injection, schedule: Q04DX003 (ip), vehicle: saline 90 % of control

COc1cc2cc3c4cc(OC)c(OC)cc4cc[n+]3c(/C=C/c3cc(OC)c(OC)c(OC)c3)c2cc1OC
inactive: dose: 100.0 mg/kg/injection, schedule: Q04DX002 (ip), vehicle: saline with Tween-80 96 % of control and 106 % of control | [13] 94 % of control | dose: 200.0 mg/kg/injection, schedule: Q04DX002 (ip), vehicle: saline with Tween-80 97 % of control and 104 % of control | [14] 96 % of control | dose: 400.0 mg/kg/injection, schedule: Q04DX002 (ip), vehicle: saline with Tween-80 104 % of control and 92 % of control | dose: 400.0 mg/kg/injection, schedule: Q04DX003 (ip), vehicle: saline with Tween-80 91 % of control

CCCN(CCC)CC(C)=O
inactive: dose: 100.0 mg/kg/injection, schedule: Q01DX009 (ip), vehicle: saline 98 % of control | [15] 107 % of control | dose: 200.0 mg/kg/injection, schedule: Q01DX009 (ip), vehicle: saline 101 % of control | [16] 109 % of control
